The numbers were not newly measured in patent publication US20130072576A1, “Cationic Nanogels For Biotechnological Applications” (Universidad Del Pais Vasco, priority 2010, published 2013), which cites them from elsewhere.

Molecules are shown by their SMILES.

As to `C=CN1CCCCCC1=O` [VCL, N-vinylcaprolactam], the solubility in water is recorded as 8.5 % by weight.
